Test results as given in patent publication US8163740B2, “6-substituted benzoxazines” (Hoffmann-La Roche Inc., priority 2008, dated 2012).

Target: recombinant human 5-HT5A receptor (Homo sapiens, UniProt P47898)
Assay: [3H]LSD radioligand binding assay
Settings: [3H]LSD (approximately 1 nM); membranes from HEK-EBNA cells transiently expressing 5-HT5A; Ki by Cheng-Prussoff equation; read-out: Ki
Outline: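 Membranes from HEK-EBNA cells transiently expressing the receptor, with ~1 nM [3H]LSD in 50 mM Tris, 1 mM EGTA, 10 mM MgCl2, 10 μM pargyline, pH 7.4, SPA bead format. Incubated 120 min RT; nonspecific binding defined with 2 μM methiothepin. 10 concentrations in duplicate; IC50 converted to Ki via Cheng-Prusoff.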

Sequence of recombinant human 5-HT5A receptor (P47898 whole entry): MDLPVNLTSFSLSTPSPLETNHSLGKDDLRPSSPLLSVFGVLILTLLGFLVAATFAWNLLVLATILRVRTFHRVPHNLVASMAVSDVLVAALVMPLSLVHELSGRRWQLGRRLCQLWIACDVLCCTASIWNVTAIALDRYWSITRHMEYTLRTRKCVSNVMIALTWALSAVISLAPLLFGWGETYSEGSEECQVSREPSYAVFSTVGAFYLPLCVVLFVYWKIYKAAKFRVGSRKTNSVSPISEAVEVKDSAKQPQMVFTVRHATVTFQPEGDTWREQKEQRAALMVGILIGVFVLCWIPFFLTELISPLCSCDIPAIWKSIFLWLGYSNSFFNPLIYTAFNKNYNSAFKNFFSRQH

Row | Ki | Structure (SMILES)
1 | 0.00834 µM | COCCNCC(=O)Nc1ccc2c(c1)COC(N[C@@H]1CCc3ccccc31)=N2 [Example 69, N-[2-((R)-Indan-1-ylamino)-4H-benzo[d][1,3]oxazin-6-yl]-2-(2-methoxy-ethylamino)-acetamide]
2 | 0.033 µM | O=C(CN1CCN(CC(F)(F)F)CC1)Nc1ccc2c(c1)COC(N[C@@H]1CCc3ccccc31)=N2 [Example 70, N-[2-((R)-Indan-1-ylamino)-4H-benzo[d][1,3]oxazin-6-yl]-2-[4-(2,2,2-trifluoro-ethyl)-piperazin-1-yl]-acetamide]
3 | 0.138 µM | CN1CCN(S(=O)(=O)Nc2ccc3c(c2)COC(N[C@@H]2CCCc4ccccc42)=N3)CC1 [Example 71, 4-Methyl-piperazine-1-sulfonic acid {2-[(R)-(1,2,3,4-tetrahydro-naphthalen-1-yl)amino]-4H-benzo[d][1,3]oxazin-6-yl}-amide]
4 | 0.0286 µM | CN1CCN(S(=O)(=O)Nc2ccc3c(c2)COC(N[C@@H]2CCc4ccccc42)=N3)CC1 [Example 72, 4-Methyl-piperazine-1-sulfonic acid [2-((R)-indan-1-ylamino)-4H-benzo[d][1,3]oxazin-6-yl]-amide]
5 | 0.0135 µM | Cc1ccc(CNC2=Nc3ccc(N)cc3CO2)o1 [Example 77, N^2-(5-Methyl-furan-2-ylmethyl)-4H-benzo[d][1,3]oxazine-2,6-diamine]
6 | 0.00444 µM | CS(=O)(=O)Nc1ccc2c(c1)COC(N[C@@H]1CCc3ccccc31)=N2 [Example 78, N-[2-((R)-Indan-1-ylamino)-4H-benzo[d][1,3]oxazin-6-yl]-methanesulfonamide]
7 | 0.00181 µM | O=S(=O)(Nc1ccc2c(c1)COC(N[C@@H]1CCc3ccccc31)=N2)C1CC1 [Example 79, Cyclopropanesulfonic acid [2-((R)-indan-1-ylamino)-4H-benzo[d][1,3]oxazin-6-yl]-amide]
8 | 0.0117 µM | Cc1ccc(CNC2=Nc3ccc(NC(=O)C4CC4)cc3CO2)o1 [Example 82, Cyclopropanecarboxylic acid {2-[(5-methyl-furan-2-ylmethyl)-amino]-4H-benzo[d][1,3]oxazin-6-yl}-amide]
9 | 0.00369 µM | O=S(=O)(Nc1ccc2c(c1)COC(N[C@@H]1CCc3ccccc31)=N2)c1ccccc1 [Example 83, N-[2-((R)-Indan-1-ylamino)-4H-benzo[d][1,3]oxazin-6-yl]-benzenesulfonamide]
10 | 0.0268 µM | Cc1ccc(CNC2=Nc3ccc(NC(=O)CN4CCN(C)CC4)cc3CO2)o1 [Example 84, N-{2-[(5-Methyl-furan-2-ylmethyl)-amino]-4H-benzo[d][1,3]oxazin-6-yl}-2-(4-methyl-piperazin-1-yl)-acetamide]
11 | 0.251 µM | Cc1ccc(CNC2=Nc3ccc(NC(=O)CN4CCOCC4)cc3CO2)o1 [Example 85, N-{2-[(5-Methyl-furan-2-ylmethyl)-amino]-4H-benzo[d][1,3]oxazin-6-yl}-2-morpholin-4-yl-acetamide]
12 | 0.0036 µM | Nc1ccc2c(c1)COC(NCCOc1ccccc1)=N2 [Example 87, N^2-(2-Phenoxy-ethyl)-4H-benzo[d][1,3]oxazine-2,6-diamine]
13 | 0.00168 µM | c1cncc(CNc2ccc3c(c2)COC(N[C@@H]2CCc4ccccc42)=N3)c1 [Example 88, N^2—(R)-Indan-1-yl-N^6-pyridin-3-ylmethyl-4H-benzo[d][1,3]oxazine-2,6-diamine]
14 | 0.00118 µM | c1ccc2c(c1)CC[C@H]2NC1=Nc2ccc(NCc3nccs3)cc2CO1 [Example 89, N^2—(R)-Indan-1-yl-N^6-thiazol-2-ylmethyl-4H-benzo[d][1,3]oxazine-2,6-diamine]
15 | 0.0167 µM | Nc1ccc2c(c1)COC(NC1CCCCCC1)=N2 [Example 92, N^2-Cycloheptyl-4H-benzo[d][1,3]oxazine-2,6-diamine]
16 | 0.0108 µM | CN1CCN(CC(=O)Nc2ccc3c(c2)COC(NC2CCCCCC2)=N3)CC1 [Example 93, N-(2-Cycloheptylamino-4H-benzo[d][1,3]oxazin-6-yl)-2-(4-methyl-piperazin-1-yl)-acetamide]
17 | 0.0635 µM | c1ccc(CNc2ccc3c(c2)COC(NC2CCCCCC2)=N3)cc1 [Example 94, N^6-Benzyl-N^2-cycloheptyl-4H-benzo[d][1,3]oxazine-2,6-diamine]
18 | 0.00553 µM | O=C(Nc1ccc2c(c1)COC(NC1CCCCCC1)=N2)C1CC1 [Example 95, Cyclopropanecarboxylic acid (2-cycloheptylamino-4H-benzo[d][1,3]oxazin-6-yl)-amide]
19 | 0.0033 µM | O=C(Nc1ccc2c(c1)COC(NCCOc1ccccc1)=N2)C1CC1 [Example 96, Cyclopropanecarboxylic acid [2-(2-phenoxy-ethylamino)-4H-benzo[d][1,3]oxazin-6-yl]-amide]

Row | Ki | Structure (SMILES)
20 | 0.0386 µM | O=S(=O)(Nc1ccc2c(c1)COC(NC1CCCCCC1)=N2)C1CC1 [Example 97, Cyclopropanesulfonic acid (2-cycloheptylamino-4H-benzo[d][1,3]oxazin-6-yl)-amide]
21 | 0.0193 µM | c1csc(CNc2ccc3c(c2)COC(NC2CCCCCC2)=N3)n1 [Example 98, N^2-Cycloheptyl-N^6-thiazol-2-ylmethyl-4H-benzo[d][1,3]oxazine-2,6-diamine]
22 | 0.0476 µM | CN(C)S(=O)(=O)Nc1ccc2c(c1)COC(NC1CCCCCC1)=N2 [Example 99, N,N-(Dimethyl)-N′-{2-cycloheptylamino-4H-benzo[d][1,3]oxazin-6-yl-}-sulfamide]
23 | 0.0747 µM | O=S(=O)(Nc1ccc2c(c1)COC(NC1CCCCCC1)=N2)c1ccccc1 [Example 100, N-(2-Cycloheptylamino-4H-benzo[d][1,3]oxazin-6-yl)-benzenesulfonamide]
24 | 0.0316 µM | c1c[nH]c(CNc2ccc3c(c2)COC(NC2CCCCCC2)=N3)n1 [Example 105, N^2-Cycloheptyl-N^6-(1H-imidazol-2-ylmethyl)-4H-benzo[d][1,3]oxazine-2,6-diamine]
25 | 0.0291 µM | O=S(=O)(Nc1ccc2c(c1)COC(NCCOc1ccccc1)=N2)C1CC1 [Example 108, Cyclopropanesulfonic acid [2-(2-phenoxy-ethylamino)-4H-benzo[d][1,3]oxazin-6-yl]-amide]
26 | 0.0323 µM | O=S(=O)(Nc1ccc2c(c1)COC(NCCOc1ccccc1)=N2)c1ccccc1 [Example 109, N-[2-(2-Phenoxy-ethylamino)-4H-benzo[d][1,3]oxazin-6-yl]-benzenesulfonamide]
27 | 0.0241 µM | CN(C)S(=O)(=O)Nc1ccc2c(c1)COC(NCCOc1ccccc1)=N2 [Example 110, N,N-(Dimethyl)-N′-{2-(2-Phenoxy-ethylamino)-4H-benzo[d][1,3]oxazin-6-yl}-sulfamide]
28 | 0.00289 µM | COc1cccc2c1C(NC1=Nc3ccc(NC(=O)CN4CCN(C)C(CO)C4)cc3CO1)CC2 (stereo not shown) [Example 116, 2-(3-Hydroxymethyl-4-methyl-piperazin-1-yl)-N-[2-(7-methoxy-indan-1-ylamino)-4H-benzo[d][1,3]oxazin-6-yl]-acetamide]
29 | 0.0157 µM | N#Cc1ccc2c(c1)COC(N[C@@H]1CCc3ccccc31)=N2 [Example 117, 2-((R)-Indan-1-ylamino)-4H-benzo[d][1,3]oxazine-6-carbonitrile]
30 | 0.0378 µM | Nc1ccc2c(c1)COC(Nc1cccc(C3CC3)c1)=N2 [Example 119, N^2-(3-Cyclopropyl-phenyl)-4H-benzo[d][1,3]oxazine-2,6-diamine]
31 | 0.00511 µM | CN1CCN(CC(=O)Nc2ccc3c(c2)COC(NCCOc2ccccc2)=N3)CC1 [Example 122, 2-(4-Methyl-piperazin-1-yl)-N-[2-(2-phenoxy-ethylamino)-4H-benzo[d][1,3]oxazin-6-yl]-acetamide]
32 | 0.0414 µM | O=C(CN1CCOCC1)Nc1ccc2c(c1)COC(NCCOc1ccccc1)=N2 [Example 123, 2-Morpholin-4-yl-N-[2-(2-phenoxy-ethylamino)-4H-benzo[d][1,3]oxazin-6-yl]-acetamide]
33 | 0.00332 µM | CC(C)N1CCC(NC(=O)Nc2ccc3c(c2)COC(NC2CCCCCC2)=N3)CC1 [Example 124, 1-(2-Cycloheptylamino-4H-benzo[d][1,3]oxazin-6-yl)-3-(1-isopropyl-piperidin-4-yl)-urea]
34 | 0.0372 µM | c1cc(NC2=Nc3ccc(NCc4ncc[nH]4)cc3CO2)cc(C2CC2)c1 [Example 125, N^2-(3-Cyclopropyl-phenyl)-N^6-(1H-imdazol-2-ylmethyl)-4H-benzo[d][1,3]oxazine-2,6-diamine]
35 | 0.0377 µM | CN1CCN(CC(=O)Nc2ccc3c(c2)COC(Nc2cccc(C4CC4)c2)=N3)CC1 [Example 126, N-[2-(3-Cyclopropyl-phenylamino)-4H-benzo[d][1,3]oxazin-6-yl]-2-(4-methyl-piperazin-1-yl)-acetamide]
36 | 0.0379 µM | c1cc(NC2=Nc3ccc(NCc4nccs4)cc3CO2)cc(C2CC2)c1 [Example 127, N^2-(3-Cyclopropyl-phenyl)-N^6-thiazol-2-ylmethyl-4H-benzo[d][1,3]oxazine-2,6-diamine]
37 | 0.0235 µM | O=C(Nc1ccc2c(c1)COC(Nc1cccc(C3CC3)c1)=N2)C1CC1 [Example 128, Cyclopropanecarboxylic acid [2-(3-cyclopropyl-phenylamino)-4H-benzo[d][1,3]oxazin-6-yl]-amide]
38 | 0.0133 µM | NCc1ccc2c(c1)COC(N[C@@H]1CCc3ccccc31)=N2 [Example 129, (6-Aminomethyl-4H-benzo[d][1,3]oxazin-2-yl)-(R)-indan-1-yl-amine]

Row | Structure (SMILES) | Ki
39 | CC(C)N1C2CCC1CC(NCC(=O)Nc1ccc3c(c1)COC(N[C@@H]1CCCc4ccccc41)=N3)C2 (stereo partly drawn) [Example 73, 2-((exo)-8-Isopropyl-8-aza-bicyclo[3.2.1]oct-3-ylamino)-N-{2-[(R)-(1,2,3,4-tetrahydro-naphthalen-1-yl)amino]-4H-benzo[d][1,3]oxazin-6-yl}-acetamide] | 0.0613 µM
40 | CC(C)N1C2CCC1CC(NCC(=O)Nc1ccc3c(c1)COC(N[C@@H]1CCc4ccccc41)=N3)C2 (stereo partly drawn) [Example 76, N-[2-((R)-Indan-1-ylamino)-4H-benzo[d][1,3]oxazin-6-yl]-2-((exo)-8-isopropyl-8-aza-bicyclo[3.2.1]oct-3-ylamino)-acetamide] | 0.0135 µM
